Data on one compound can be found in US20210317111A1, “NOVEL MEDICAMENT FOR TREATING INFLAMMATORY BOWEL DISEASE” (OTSUKA PHARMACEUTICAL CO., LTD., priority 2018, published 2021).

Values after ≈ are worked out from the molar mass of the structure shown.

For test [1], the system named is TNBS-induced enteritis. Description: TNBS-induced enteritis model. The class given is in vivo, rat. The protocol:
An enteritis animal model induced with 2,4,6-trinitrobenzenesulfonic acid (TNBS) is widely used as Crohn's disease model since the inflammatory finding is pathologically similar to that of human Crohn's disease. In addition, the enteritis model was used in the non-clinical study of mesalazine that is a medicament for treating Crohn's disease. Thus, this enteritis model was used as Crohn's disease model for evaluating the present compound.
Rats were made to be fasted for 24 or 48 hours, and the body weight were measured. The rats were laparotomized under isoflurane anesthesia, and 50% ethanol (0.25 mL) containing 60 mg/mL 2,4,6-trinitrobenzenesulfonic acid (TNBS) was injected into the large intestine from the cecum side toward the anal side to induce the injury. Each group composed of 12 rats was set, and vehicle, the present compound, or salazosulfapyridine (SASP) which is an already-existing drug for treating inflammatory bowel disease were administered for 7 days from the first day after the injection of TNBS. On the 8th day, each rat was laparotomized under anesthesia and killed by exsanguination. The large intestine was removed from the anus to the cecum, the large intestine was longitudinally incised, and the incised large intestine was washed with a cold saline. The lesion area of the large intestine was photographed with a digital camera. The area of the lesion area in the photograph of the large intestine was measured using image analyzing program.
Each compound was orally administered at a dose of 100 mg/kg twice a day from one day after inducing enteritis with TNBS. Each area of the lesion area on the 8th day was compared.

In test [2] the test system is Bacteroides spp. Description: antibacterial activity against intestinal bacteria (MIC). The class given is cell-based. The protocol:
(§1) The antibacterial activity of the present compound was examined against Bacteroides spp and Streptococcus spp, which are enterobacteria.
(§2) The antibacterial activity (minimum inhibitory concentration (MIC)) was assayed by agar plate dilution method or broth microdilution method, which is based on Clinical and laboratory standards institute (CLSI). Specifically, the experiment was performed as follows. The compound of the present invention or the control substance was prepared by 2-fold serial dilution, respectively, and test strains were inoculated on the medium suitable for each test strain. After the inoculation followed by incubation at 37° C. under aerobic or anaerobic conditions, the minimum concentration at which colony formation was not observed in agar plate dilution method, or the minimum concentration without turbidity of the culture medium (the bacterial growth was not observed) in broth microdilution method was determined as MIC.

For test [3], the system named is Streptococcus spp. The test is described as above. The class given is cell-based. The procedure: as §1, §2
Test [4] relates to DSS-induced colitis. Description: DSS-induced colitis model, stool scores. The class given is in vivo, rat. The note with it: for deaths: 8 animals per group. The source says: A colitis model induced by dextran sulfate sodium (DSS) is widely used as an experimental ulcerative colitis model having similarities of human ulcerative colitis regarding suppression of weight gain, colitis symptoms such as bloody stools and diarrhea, and injury formation in the large intestine. The effect of the present compound on the ulcerative colitis model was examined, and it was compared with salazosulfapyridine (SASP) clinically used as a therapeutic agent for ulcerative colitis.
Symptoms of colitis were induced by allowing rats to freely drink 3% dextran sulfate sodium (DSS) solution for 10 days. […] For the observation of stool symptoms, the degree of stool condition was scored as the score of stool firmness (Stool Consistency Score: 0, 1, 2, 3) and blood stool (Bloody Stool Score: 0, 1, 2, 3). The total of Stool Consistency Score and Bloody Stool Score was taken as the Total Stool Score. Each group was composed of 8 animals. Salazosulfapyridine (SASP), which is an already-existing drug for treating inflammatory bowel disease, the present compound or the vehicle were administrated for 10 days from the start date of 3% DSS freely drinking.

For test [5], the system named is Fusobacterium spp. Description: antibacterial activity (MIC), agar plate dilution method. The class given is cell-based. As to conditions: 17 strains of Fusobacterium spp.; anaerobic, 37° C. The protocol: There are plural reports about the relationship between intestinal bacteria and inflammatory bowel disease, and it is thought that Fusobacterium spp., one of the intestinal bacteria is a pathogenic bacteria causing inflammatory bowel disease. […] The antibacterial activity (minimum inhibitory concentration (MIC)) was assayed by agar plate dilution method which is based on Clinical and laboratory standards institute (CLSI). The medium used herein was Brucella medium with sheep blood. […] The bacterial suspension was inoculated onto Brucella agar with sheep blood which contains the present compound or any one of the comparative drugs, and incubated at 37° C. under an anaerobic condition.

Test [6] concerns TNF-α. Description: TNF-α production by stimulated PBMC (ELISA). The class given is cell-based. As to conditions: stimulated human PBMC, 3 days, culture supernatant. The procedure: (§3) Peripheral blood (30 mL) derived from a healthy adult was layered on a lymphocyte tube Leucosep™ containing Lymphoprep (15 mL), and the tube was centrifuged at room temperature at 2000 rpm for 20 minutes. After the centrifugation, the upper 5 mL of the plasma was removed from the peripheral blood mononuclear cell (PBMC) layer with an aspirator, and the left solution containing the PBMC layer was collected into a new 50 mL tube. To the collected solution was added an equal amount of Hanks' balanced salt solution (HBSS) to dilute the cell suspension. The diluted solution was centrifuged at 4° C. at 1800 rpm for 5 minutes. After the centrifugation, the supernatant was discarded, the rest was suspended in 10 mL of AIM-V. The suspension was centrifuged at 4° C. at 1500 rpm for 5 minutes, and the supernatant was discarded. The same washing process was repeated one more time. After the centrifugation, the supernatant was discarded, and the obtained cell was suspended in 5% FBS-containing AIM-V to be used in the following tests.
To 96-well round-bottom plate were added 100 μL of medium containing the compound, 100 μL (0.5×10^5 beads) of anti-CD3/CD28/CD2-loaded bead suspension (Miltenyi), and 100 μL (1×10^5 cells) of PBMC suspension. The mixture was incubated at 37° C. in 5% CO2 for 3 days.
(In an ELISA, binding on a coated surface is turned into a signal by an enzyme label.)

Test [7] concerns proliferated T cell. Description: T-cell proliferation (CFSE) in stimulated PBMC. The class given is cell-based, human. As to conditions: both CD4-positive and CD8-positive T-cell; 2 days. The procedure: as §3, with “tests. […]” for “tests.”
The mark [8] stands for this setting: 11th day, present compound 1, 3, 10 mg/kg (P<0.01) or SASP 100 mg/kg (P<0.05) orally twice a day, Dunnett's test.
Setting [9] is: present compound groups, orally twice a day.

In the case of `Cc1c(-c2cnc(N)c(C#N)c2)c(F)cc2c(=O)c(C(=O)O)cn(C3CC3)c12` [the present compound, 7-(6-amino-5-cyanopyridin-3-yl)-1-cyclopropyl-6-fluoro-1,4-dihydro-8-methyl-4-oxo-3-quinoline-carboxylic acid], the “area of the lesion area of the large intestine” value in test [1] (100 mg/kg orally twice a day for 7 days, 8th day, vs vehicle control, P<0.01 t-test) is “significantly inhibited the area of lesion”. Moreover, the “number of death during the treatment” value in test [1] (100 mg/kg orally twice a day, 12 rats per group) is given as “decreased the number of death”. Further, the antibacterial activity entry in test [2] is reported as “strong antibacterial activities”. Also, the antibacterial activity entry in test [3] was “strong antibacterial activities”. Also, the deaths result in test [4] (1 mg/kg orally twice a day) is recorded as “One”. In addition, the deaths result in test [4] (3 mg/kg orally twice a day) is “no death”. Also, in test [4] (10 mg/kg orally twice a day), the “effect on blood stool score at 10 mg/kg” value is “remarkable deterioration suppression effect” and the deaths result was “no death”. The “bloody stool score vs vehicle control” value in test [4] (11th day, present compound 1 mg/kg (P<0.05), 3, 10 mg/kg (P<0.01) or SASP 100 mg/kg orally twice a day, Dunnett's test) is recorded as “Significant differences”. For the same compound, in test [4] (setting [8]), the “stool firmness (Stool Consistency Score) vs vehicle control” value is “Significant differences” and the “total stool score vs vehicle control” value is on record as “Significant differences”. For the same compound, in test [4] (setting [9]), the “day from which deterioration suppression effect on blood stool score was observed” value is reported as “from the 6th day” and the “day from which deterioration suppression effect on stool firmness score was observed” value is “from the 9th day”. The minimal inhibitory concentration (MIC) in test [5] was in the range of 0.25 to 1 µg/mL (≈ 0.661 to 2.64 µM). In test [6], the “cytokine production (TNF-α)” value was “decreased”. Besides, the “inhibition of T cell proliferation (MFI CFSE)” value in test [7] is “effect of cell growth inhibition”.

The term MIC denotes the lowest concentration that inhibits growth of the organism.
